Experimental data reported in ChEMBL document CHEMBL1649540, “The novel CXCR4 antagonist KRH-3955 is an orally bioavailable and extremely potent inhibitor of human immunodeficiency virus type 1 infection: comparative studies with AMD3100” (Antimicrob Agents Chemother, 2009).
Active and inactive are the calls of the source. The calls are words filed in the database; no cut-off is given here.

Legend:
[1] = test system: Human immunodeficiency virus 1; assay: Antiviral activity against HIV1 89.6 infected in human PBMC assessed as inhibition of viral p24 antigen production after 7 to 10 days by ELISA; type: functional, organism-based; details: Human immunodeficiency virus 1, 89.6
[2] = test system: Human immunodeficiency virus 1; assay: Antiviral activity against HIV1 R5 infected in human PBMC assessed as inhibition of viral p24 antigen production after 7 to 10 days by ELISA; type: functional, organism-based; details: Human immunodeficiency virus 1, R5
[3] = test system: Human immunodeficiency virus 1; assay: Antiviral activity against NRTI-resistant HIV1 HXB2 infected in HEK293 cells assessed as inhibition of viral replication after 2 days; type: functional, organism-based; details: Human immunodeficiency virus 1, HXB2, HEK293, 48 h
[4] = test system: Human immunodeficiency virus 1; assay: Antiviral activity against PI-resistant HIV1 HXB2 infected in HEK293 cells assessed as inhibition of viral replication after 2 days; type: functional, organism-based; details: Human immunodeficiency virus 1, HXB2, HEK293, 48 h
[5] = target: T1, C-X-C chemokine receptor type 4 (Homo sapiens, UniProt P61073); assay: Displacement of [125I]SDF-1alpha form CXCR4 expressed in CHO cells by scintillation counting; type: cell-based
T1 sequence (P61073 whole entry): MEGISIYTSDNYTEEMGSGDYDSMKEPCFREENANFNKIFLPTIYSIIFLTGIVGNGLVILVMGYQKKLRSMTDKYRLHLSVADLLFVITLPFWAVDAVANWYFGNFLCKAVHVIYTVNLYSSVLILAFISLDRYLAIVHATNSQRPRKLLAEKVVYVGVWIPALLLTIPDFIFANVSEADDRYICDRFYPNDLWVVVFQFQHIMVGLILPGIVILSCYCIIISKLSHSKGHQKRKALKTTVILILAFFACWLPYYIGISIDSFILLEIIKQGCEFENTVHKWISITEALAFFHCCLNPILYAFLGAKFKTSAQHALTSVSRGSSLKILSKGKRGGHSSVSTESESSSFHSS

[6] = target: T1, C-X-C chemokine receptor type 4; assay: Displacement of [125I]SDF-1alpha form CXCR4 expressed in human MOLT4 cells by scintillation counting; type: cell-based; details: MOLT-4
[7] = test system: Human immunodeficiency virus 1; assay: Antiviral activity against T20-resistant HIV1 NL4-3 infected in HEK293 cells assessed as inhibition of viral replication after 2 days; type: functional, organism-based; details: Human immunodeficiency virus 1, NL4-3, HEK293, 48 h
[8] = target: C-C chemokine receptor type 2 (Homo sapiens) (UniProt P41597); assay: Displacement of [125I]MCP1 form CCR2b expressed in CHO cells by scintillation counting; type: cell-based
C-C chemokine receptor type 2 (Homo sapiens), sequence (P41597 whole entry, looked up): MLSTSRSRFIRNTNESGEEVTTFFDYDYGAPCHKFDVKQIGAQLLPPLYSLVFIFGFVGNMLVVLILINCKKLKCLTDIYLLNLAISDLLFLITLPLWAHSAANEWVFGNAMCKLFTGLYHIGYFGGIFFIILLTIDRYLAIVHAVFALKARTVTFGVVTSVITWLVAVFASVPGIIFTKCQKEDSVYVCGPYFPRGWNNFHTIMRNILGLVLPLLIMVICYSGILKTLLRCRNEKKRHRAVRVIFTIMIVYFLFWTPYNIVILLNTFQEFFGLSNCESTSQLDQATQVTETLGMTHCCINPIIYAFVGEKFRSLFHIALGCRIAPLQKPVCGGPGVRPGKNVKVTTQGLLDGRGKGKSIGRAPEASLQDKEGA

[9] = target: C-C chemokine receptor type 4 (Homo sapiens) (UniProt P51679); assay: Displacement of [125I]TARC form CCR4 expressed in CHO cells by scintillation counting; type: cell-based
C-C chemokine receptor type 4 (Homo sapiens), sequence (P51679 whole entry): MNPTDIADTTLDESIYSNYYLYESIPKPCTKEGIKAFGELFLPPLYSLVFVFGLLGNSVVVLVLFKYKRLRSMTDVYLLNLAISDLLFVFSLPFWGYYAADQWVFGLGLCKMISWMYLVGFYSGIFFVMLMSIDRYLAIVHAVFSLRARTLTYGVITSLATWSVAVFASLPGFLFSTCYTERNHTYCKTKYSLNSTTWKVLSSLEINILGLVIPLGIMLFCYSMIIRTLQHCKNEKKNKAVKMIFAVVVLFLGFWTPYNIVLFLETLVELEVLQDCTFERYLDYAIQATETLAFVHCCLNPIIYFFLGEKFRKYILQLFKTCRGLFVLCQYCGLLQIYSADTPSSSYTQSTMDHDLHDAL

[10] = target: T1, C-X-C chemokine receptor type 4; assay: Inhibition of Mab 44717 binding to CXCR4 expressed in human MOLT4 cells by FACS analysis; type: cell-based; details: MOLT-4
[11] = Volume of distribution at steady state in Sprague-Dawley rat at 10 mg/kg, iv administered as single dose; type: ADME, organism-based; set-up: dose 10 mg/kg, route intravenous; details: in vivo
[12] = Cmax in Sprague-Dawley rat at 10 mg/kg, po administered as single dose; type: ADME, organism-based; set-up: dose 10 mg/kg, route oral; details: in vivo
[13] = test system: C-X-C chemokine receptor type 4 (Homo sapiens), P61073 [V99A]; assay: (§1) Inhibition of Mab 12G5 binding to CXCR4 V99A mutant expressed in HEK293 cells; type: cell-based
C-X-C chemokine receptor type 4 (Homo sapiens), P61073 [V99A], sequence (P61073 whole entry V99A): as the sequence (P61073 whole entry) above, with V99A counted along it

[14] = target: C-X-C chemokine receptor type 4 (Homo sapiens, UniProt P61073, V99A); assay: as §1; type: cell-based
C-X-C chemokine receptor type 4 (Homo sapiens, UniProt P61073, V99A), sequence (P61073 whole entry V99A): as the sequence (P61073 whole entry) above, with V99A counted along it

[15] = test system: C-X-C chemokine receptor type 4 (Homo sapiens), P61073 [V112A]; assay: (§2) Inhibition of Mab 12G5 binding to CXCR4 V112A mutant expressed in HEK293 cells; type: cell-based
C-X-C chemokine receptor type 4 (Homo sapiens), P61073 [V112A], sequence (P61073 whole entry V112A): as the sequence (P61073 whole entry) above, with V112A counted along it

[16] = target: C-X-C chemokine receptor type 4 (Homo sapiens, UniProt P61073, V112A); assay: as §2; type: cell-based
C-X-C chemokine receptor type 4 (Homo sapiens, UniProt P61073, V112A), sequence (P61073 whole entry V112A): as the sequence (P61073 whole entry) above, with V112A counted along it

[17] = test system: C-X-C chemokine receptor type 4 (Homo sapiens), P61073 [D181A]; assay: (§3) Inhibition of Mab 12G5 binding to CXCR4 D181A mutant expressed in HEK293 cells; type: cell-based
C-X-C chemokine receptor type 4 (Homo sapiens), P61073 [D181A], sequence (P61073 whole entry D181A): as the sequence (P61073 whole entry) above, with D181A counted along it

[18] = target: C-X-C chemokine receptor type 4 (Homo sapiens, UniProt P61073, D181A); assay: as §3; type: cell-based
C-X-C chemokine receptor type 4 (Homo sapiens, UniProt P61073, D181A), sequence (P61073 whole entry D181A): as the sequence (P61073 whole entry) above, with D181A counted along it

[19] = test system: C-X-C chemokine receptor type 4 (Homo sapiens), P61073 [H281A]; assay: (§4) Inhibition of Mab 12G5 binding to CXCR4 H281A mutant expressed in HEK293 cells; type: cell-based
C-X-C chemokine receptor type 4 (Homo sapiens), P61073 [H281A], sequence (P61073 whole entry H281A): as the sequence (P61073 whole entry) above, with H281A counted along it

[20] = target: C-X-C chemokine receptor type 4 (Homo sapiens, UniProt P61073, H281A); assay: as §4; type: cell-based
C-X-C chemokine receptor type 4 (Homo sapiens, UniProt P61073, H281A), sequence (P61073 whole entry H281A): as the sequence (P61073 whole entry) above, with H281A counted along it

[21] = target: C-X-C chemokine receptor type 4 (Homo sapiens, UniProt P61073, H113A)
C-X-C chemokine receptor type 4 (Homo sapiens, UniProt P61073, H113A), sequence (P61073 whole entry H113A): as the sequence (P61073 whole entry) above, with H113A counted along it

[22] = target: C-X-C chemokine receptor type 4 (Homo sapiens, UniProt P61073, D171A)
C-X-C chemokine receptor type 4 (Homo sapiens, UniProt P61073, D171A), sequence (P61073 whole entry D171A): as the sequence (P61073 whole entry) above, with D171A counted along it

[23] = target: C-X-C chemokine receptor type 4 (Homo sapiens, UniProt P61073, E288A/L290A)
C-X-C chemokine receptor type 4 (Homo sapiens, UniProt P61073, E288A/L290A), sequence (P61073 whole entry E288A/L290A): as the sequence (P61073 whole entry) above, with E288A, L290A counted along it

[24] = test system: C-X-C chemokine receptor type 4 (Homo sapiens), P61073 [H113A]; details: HEK293
C-X-C chemokine receptor type 4 (Homo sapiens), P61073 [H113A], sequence (P61073 whole entry H113A): as the sequence (P61073 whole entry) above, with H113A counted along it

[25] = test system: C-X-C chemokine receptor type 4 (Homo sapiens), P61073 [D171A]; details: HEK293
C-X-C chemokine receptor type 4 (Homo sapiens), P61073 [D171A], sequence (P61073 whole entry D171A): as the sequence (P61073 whole entry) above, with D171A counted along it

[26] = test system: C-X-C chemokine receptor type 4 (Homo sapiens), P61073 [D262A]; details: HEK293
C-X-C chemokine receptor type 4 (Homo sapiens), P61073 [D262A], sequence (P61073 whole entry D262A): as the sequence (P61073 whole entry) above, with D262A counted along it

[27] = test system: C-X-C chemokine receptor type 4 (Homo sapiens), P61073 [E288A,L290A]; details: HEK293
C-X-C chemokine receptor type 4 (Homo sapiens), P61073 [E288A,L290A], sequence (P61073 whole entry E288A/L290A): as the sequence (P61073 whole entry) above, with E288A, L290A counted along it

For CCCN(CCC)CCCCN(C)Cc1ccc(CN(Cc2ncc[nH]2)Cc2nccn2C)cc1.O=C(O)C(O)C(O)C(=O)O, the EC50 [1] was 0.38 nM, the EC50 [2] was > 200 nM and the IC50 [3] was 0.6 nM. The IC50 [4] was 0.7 nM, the Activity [5] was “Dose-dependent effect” and the IC50 [5] was 0.61 nM. The Activity [6] was “Active”, the IC50 [7] was 0.4 nM and the Activity [8] was “inactive”. For the same compound, the Activity [9] was “inactive”, the inhibition [10] was “Dose-dependent effect” and the Vd [11] was 374 L/kg. The Cmax [12] was 86.3 ng/mL, the IC90 [13] was 7.4 nM and the IC50 [14] was 1.5 nM. For the same compound, the IC90 [15] was > 10 nM, the IC50 [16] was 2.2 nM and the IC90 [17] was 5.1 nM. For the same compound, the IC50 [18] was 0.5 nM, the IC90 [19] was 248 nM and the IC50 [20] was 14.1 nM. It also gave an IC50 [21] of 0.8 nM, an IC50 [22] of 3.2 nM and an IC50 [23] of 1.6 nM. For the same compound, the IC90 [24] was 6.3 nM, the IC90 [25] was > 10 nM and the IC90 [26] was 8.1 nM. It also gave an IC90 [27] of 7.7 nM.
